Test results from patent US6355799B1, “Substituted benzene compounds, process for their preparation, and herbicidal and defoliant compositions containing them” (ISK Americas Incorporated, priority 1997, dated 2002).

Tests used:
Assay type in all cases: in vivo
[1] = system: redroot pigweed (Amaranthus retroflexus, AMARE); assay: Pre-emerge test, greenhouse herbicide activity screening; details: pre-emerge, phytotoxicity rating 0-100 at 14 days after application
In short: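 Compounds in acetone were track-sprayed at 187 l/ha, 15–1000 g ai/ha, onto sandy loam pots. Pre-emerge seeds were sown one day before spraying, with surface watering afterwards. Post-emerge plants were at the 2–3 leaf stage and sprayed with 0.25% v/v non-ionic surfactant. Injury was rated 0–100 at 14 days.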

[2] = system: barnyardgrass (Echinochloa crus-galli, ECHCG); assay: as above; details: pre-emerge, phytotoxicity rating 0-100 at 14 days after application
In short: (§1)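 Compounds in acetone were track-sprayed at 15-1000 g ai/ha (187 l/ha) on sandy loam pots: pre-emerge one day after seeding, post-emerge at 2-3 leaf stage with 0.25% v/v non-ionic surfactant. Phytotoxicity was rated 14 days later on a 0 (no damage) to 100 (complete death) scale.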

[3] = system: green foxtail (Setaria viridis, SETVI); assay: as above; details: pre-emerge, phytotoxicity rating 0-100 at 14 days after application
In short: as §1

[4] = system: ivyleaf morningglory (Ipomoea hederacea, IPOHE); assay: as above; details: pre-emerge, phytotoxicity rating 0-100 at 14 days after application
In short: as §1

[5] = system: johnsongrass (Sorghum halepense, SORHA); assay: as above; details: pre-emerge, phytotoxicity rating 0-100 at 14 days after application
In short: as §1

[6] = system: lambsquarters (Chenopodium album, CHEAL); assay: as above; details: pre-emerge, phytotoxicity rating 0-100 at 14 days after application
In short: as §1

[7] = system: large crabgrass (Digitaria sanguinalis, DIGSA); assay: as above; details: pre-emerge, phytotoxicity rating 0-100 at 14 days after application
In short: as §1

[8] = system: sicklepod (Cassia obtusifolia, CASOB); assay: as above; details: pre-emerge, phytotoxicity rating 0-100 at 14 days after application
In short: as §1

[9] = system: velvetleaf (Abutilon theophrasti, ABUTH); assay: as above; details: pre-emerge, phytotoxicity rating 0-100 at 14 days after application
In short: as §1

[10] = system: field corn (Zea mays L., var. Dekalb 535, CORN); assay: Pre-emerge test, crop safety; details: crop damage, pre-emerge, phytotoxicity rating 0-100 at 14 days after application
In short: (§2)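 Visual ratings on a 0-100 scale (0 no damage, 100 all plants dead) were taken at 14 days after treatment. Rates of 15-1000 g ai/ha in acetone, 187 l/ha, were sprayed onto soil one day after planting (pre-emerge) or onto 2-3 leaf plants with 0.25% v/v surfactant (post-emerge).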

[11] = system: upland rice (Oryza sp., var. Tebonnet, RICE); assay: Pre-emerge test, crop safety; details: crop damage, pre-emerge, phytotoxicity rating 0-100 at 14 days after application
In short: as §2

[12] = system: barnyardgrass (Echinochloa crus-galli, ECHCG); assay: Post-emerge test, greenhouse herbicide activity screening; details: post-emerge, phytotoxicity rating 0-100 at 14 days after application
In short: (§3)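 Applied at 15–1000 g ai/ha from acetone in 187 l/ha spray volume. Post-emergence applications included 0.25% v/v non-ionic surfactant and reached plants sown 8–21 days before. Pre-emergence applications were incorporated by surface watering. Efficacy or crop damage was rated on a 0–100 scale after 14 days.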

[13] = system: green foxtail (Setaria viridis, SETVI); assay: as above; details: post-emerge, phytotoxicity rating 0-100 at 14 days after application
In short: as §3

[14] = system: ivyleaf morningglory (Ipomoea hederacea, IPOHE); assay: as above; details: post-emerge, phytotoxicity rating 0-100 at 14 days after application
In short: as §3

[15] = system: johnsongrass (Sorghum halepense, SORHA); assay: as above; details: post-emerge, phytotoxicity rating 0-100 at 14 days after application
In short: as §3

[16] = system: lambsquarters (Chenopodium album, CHEAL); assay: as above; details: post-emerge, phytotoxicity rating 0-100 at 14 days after application
In short: as §3

[17] = system: large crabgrass (Digitaria sanguinalis, DIGSA); assay: as above; details: post-emerge, phytotoxicity rating 0-100 at 14 days after application
In short: as §3

[18] = system: redroot pigweed (Amaranthus retroflexus, AMARE); assay: as above; details: post-emerge, phytotoxicity rating 0-100 at 14 days after application
In short: as §3

[19] = system: sicklepod (Cassia obtusifolia, CASOB); assay: as above; details: post-emerge, phytotoxicity rating 0-100 at 14 days after application
In short: as §3

[20] = system: velvetleaf (Abutilon theophrasti, ABUTH); assay: as above; details: post-emerge, phytotoxicity rating 0-100 at 14 days after application
In short: as §3

[21] = system: field corn (Zea mays L., var. Dekalb 535, CORN); assay: Post-emerge test, crop safety; details: post-emerge, crop damage rating 0-100 at 14 days after application
In short: as §1

[22] = system: upland rice (Oryza sp., var. Tebonnet, RICE); assay: Post-emerge test, crop safety; details: post-emerge, crop damage rating 0-100 at 14 days after application
In short: as §1

## C#CCOc1c(Cl)cc(F)c(N2C(=O)C3=C(CCCC3)C2=O)c1N [Compound 8-3, N-(2-amino-4-chloro-6-fluoro-3-propargyloxyphenyl)tetrahydrophthalimide]
[1]; rate 63 g ai/ha
  Pre-emerge Herbicidal Activity AMARE: 99
[1]; rate 250 g ai/ha
  Pre-emerge Herbicidal Activity AMARE: 100
[2]; rate 63 g ai/ha
  Pre-emerge Herbicidal Activity ECHCG: 0
[2]; rate 250 g ai/ha
  Pre-emerge Herbicidal Activity ECHCG: 10
[3]; rate 63 g ai/ha
  Pre-emerge Herbicidal Activity SETVI: 95
[3]; rate 250 g ai/ha
  Pre-emerge Herbicidal Activity SETVI: 98
[4]; rate 63 g ai/ha
  Pre-emerge Herbicidal Activity IPOHE: 30
[4]; rate 250 g ai/ha
  Pre-emerge Herbicidal Activity IPOHE: 10
[5]; rate 63 g ai/ha
  Pre-emerge Herbicidal Activity SORHA: 20
[5]; rate 250 g ai/ha
  Pre-emerge Herbicidal Activity SORHA: 30
[6]; rate 63 g ai/ha
  Pre-emerge Herbicidal Activity CHEAL: 99
[6]; rate 250 g ai/ha
  Pre-emerge Herbicidal Activity CHEAL: 100
[7]; rate 63 g ai/ha
  Pre-emerge Herbicidal Activity DIGSA: 30
[7]; rate 250 g ai/ha
  Pre-emerge Herbicidal Activity DIGSA: 60
[8]; rate 63 g ai/ha
  Pre-emerge Herbicidal Activity CASOB: 30
[8]; rate 250 g ai/ha
  Pre-emerge Herbicidal Activity CASOB: 50
[9]; rate 63 g ai/ha
  Pre-emerge Herbicidal Activity ABUTH: 98
[9]; rate 250 g ai/ha
  Pre-emerge Herbicidal Activity ABUTH: 100
[10]; rate 63 g ai/ha
  Pre-emerge Herbicidal Activity CORN: 10
[10]; rate 250 g ai/ha
  Pre-emerge Herbicidal Activity CORN: 0
[11]; rate 63 g ai/ha
  Pre-emerge Herbicidal Activity RICE: 0
[11]; rate 250 g ai/ha
  Pre-emerge Herbicidal Activity RICE: 0
[12]; 63 g ai/ha
  Post-emerge Herbicidal Activity ECHCG: 0
[12]; 250 g ai/ha
  Post-emerge Herbicidal Activity ECHCG: 0
[13]; 63 g ai/ha
  Post-emerge Herbicidal Activity SETVI: 0
[13]; 250 g ai/ha
  Post-emerge Herbicidal Activity SETVI: 70
[14]; 63 g ai/ha
  Post-emerge Herbicidal Activity IPOHE: 40
[14]; 250 g ai/ha
  Post-emerge Herbicidal Activity IPOHE: 60
[15]; 63 g ai/ha
  Post-emerge Herbicidal Activity SORHA: 0
[15]; 250 g ai/ha
  Post-emerge Herbicidal Activity SORHA: 20
[16]; 63 g ai/ha
  Post-emerge Herbicidal Activity CHEAL: 70
[16]; 250 g ai/ha
  Post-emerge Herbicidal Activity CHEAL: 90
[17]; 63 g ai/ha
  Post-emerge Herbicidal Activity DIGSA: 0
[17]; 250 g ai/ha
  Post-emerge Herbicidal Activity DIGSA: 0
[18]; 63 g ai/ha
  Post-emerge Herbicidal Activity AMARE: 90
[18]; 250 g ai/ha
  Post-emerge Herbicidal Activity AMARE: 100
[19]; 63 g ai/ha
  Post-emerge Herbicidal Activity CASOB: 0
[19]; 250 g ai/ha
  Post-emerge Herbicidal Activity CASOB: 50
[20]; 63 g ai/ha
  Post-emerge Herbicidal Activity ABUTH: 90
[20]; 250 g ai/ha
  Post-emerge Herbicidal Activity ABUTH: 100
[21]; 63 g ai/ha
  Post-emerge Herbicidal Activity CORN: 0
[21]; 250 g ai/ha
  Post-emerge Herbicidal Activity CORN: 0
[22]; 63 g ai/ha
  Post-emerge Herbicidal Activity RICE: 20
[22]; 250 g ai/ha
  Post-emerge Herbicidal Activity RICE: 80
